Values of other authors, collected in PMC10216478, “Development of a Non-Peptide Angiotensin II Type 1 Receptor Ligand by Structural Modification of Olmesartan as a Biased Agonist” (Biomedicines, 2023).

Assays:
[1] = system: human coronary artery smooth muscle cells; set-up: method as in PMID 15785012; settings: as well as a stably expressed AT1 receptor cell line; cited from earlier work
[2] = system: AT1 receptor; set-up: method as in PMID 15785012; settings: cited from earlier work

## [Sar^1, Ile^4, Ile^8]Ang II
[1]
  Gq-independent ERK 1/2 activation: still activated
[2]
  Gq-dependent inositol phosphate (IP) production: did not increase
